Measured values from US20260242330A1, “USE OF AN AMANTADINE MONONITRATE COMPOUND IN MANUFACTURE OF A MEDICAMENT FOR THE PREVENTION AND TREATMENT OF HYPERTENSION” (GUANGZHOU MAGPIE PHARMACEUTICALS CO., LTD., priority 2022, published 2026).

Key:
Assay type in all cases: in vivo, human
[1] = test system: blood pressure of subjects; assay: Effect of multiple administration of MN-08 on blood pressure of subjects (3 days)
Description: (§1) All subjects in the following embodiments have signed informed consent forms, which comply with medical ethics regulations. According to the relevant provisions of Chinese Guidelines for the Prevention and Treatment of Hypertension (2018 Revision), the values measured for hypertension are the average blood pressure measured three times on a different day without the use of antihypertensive drugs. Therefore, in this embodiment, the baseline blood pressure of the subjects before administration is set as the average blood pressure measured at three different times: screening period, occupancy period, and 1 hour before administration, as shown in Tables 1 to 3.
Multiple dosing trials: Participants in each dose group fasted for at least 10 hours before administration, without water deprivation overnight. Each group of subjects took the test drug orally on an empty stomach twice a day (with an interval of 12 hours and at least 1 hour on an empty stomach before the second administration). The first administration time every day is around 8 am, taken with 240 mL of water. Taking subjects 15-17 as an example, the effect of multiple doses of MN-08 (3 days) on subjects' blood pressure was investigated.

[2] = test system: blood pressure in subjects with a DP≥90 mmHg; assay: Effect of MN-08 on blood pressure in subjects with a DP≥90 mmHg; conditions: single or multiple administration as in Example 2
Description: From this, it can be seen that making diastolic pressure drop more than systolic pressure drop is the characteristic of MN-08.

[3] = test system: blood pressure of subjects; assay: Effect of multiple administrations of MN-08 on blood pressure of subjects (7 days); conditions: for DP / SP: Subject 14; for DP: baseline 84 mmHg; for SP: baseline 122 mmHg
Description: as §1
Multiple dosing trials: Participants in each dose group fasted for at least 10 hours before administration, without water deprivation overnight. Each group of subjects received oral administration of the test drug on an empty stomach from day 1 to day 6, twice a day (with an interval of 12 hours and at least 1 hour on an empty stomach before the second administration), and only once in the morning on day 7. A total of 13 doses were administered. The first administration time every day is around 8 am, taken with 240 mL of water. Taking subject 14 as an example, the effect of multiple doses of MN-08 (7 days) on subject blood pressure was investigated.

[4] = Pharmacokinetic test of MN-08 in clinical trial, single oral dose
Protocol: In the clinical trial of amantadine mononitrate compound MN-08, the pharmacokinetic test included a total of 8 dose groups (6 mg, 12 mg, 42 mg, 60 mg, 78 mg, 96 mg, 114 mg, and 132 mg).
The subjects received a single oral dose of MN-08 at doses of 6 mg, 12 mg, 42 mg, 60 mg, 78 mg, 96 mg, 114 mg, and 132 mg, respectively. […] Most existing antihypertensive drugs have a short half-life and require frequent administration, resulting in poor patient compliance. In contrast, the amantadine mononitrate compound MN-08 of the present invention has a half-life of more than 20 hours, a long drug action time, and can reduce the number of administration times and improve patient compliance compared to other existing hypertensive drugs.

[5] = 12 mg twice a day, D 1, 2 hrs after 2nd adm.
[6] = 12 mg twice a day, D 1, 4 hrs after 1st adm.
[7] = 12 mg twice a day, D 1, 8 hrs after 1st adm.
[8] = 12 mg twice a day, D 2, 2 hrs after 2nd adm.
[9] = 12 mg twice a day, D 2, 4 hrs after 1st adm.
[10] = 12 mg twice a day, D 2, 8 hrs after 1st adm.
[11] = 12 mg twice a day, D 3, 2 hrs after 2nd adm.
[12] = 12 mg twice a day, D 3, 4 hrs after 1st adm.
[13] = 12 mg twice a day, D 3, 8 hrs after 1st adm.
[14] = 12 mg twice a day, D 4, 2 hrs after 2nd adm.
[15] = 12 mg twice a day, D 4, 4 hrs after 1st adm.
[16] = 12 mg twice a day, D 4, 8 hrs after 1st adm.
[17] = 12 mg twice a day, D 5, 2 hrs after 2nd adm.
[18] = 12 mg twice a day, D 5, 4 hrs after 1st adm.
[19] = 12 mg twice a day, D 5, 8 hrs after 1st adm.
[20] = 12 mg twice a day, D 6, 2 hrs after 2nd adm.
[21] = 12 mg twice a day, D 6, 4 hrs after 1st adm.
[22] = 12 mg twice a day, D 6, 8 hrs after 1st adm.
[23] = 12 mg, once on D 7 after 6 days twice a day, D 7, 4 hrs after adm.
[24] = 12 mg, once on D 7 after 6 days twice a day, D 7, 8 hrs after adm.
[25] = 12 mg, once on D 7 after 6 days twice a day, D 7, 12 hrs after adm.

## CCC12CC3CC(N)(C1)CC(CO[N+](=O)[O-])(C3)C2 (centres unmarked) [MN-08]
[1]; Subject 15, 12 mg twice a day, D 1, 2 hrs after 2nd adm., baseline 75 mmHg
  DP: 59 mmHg
[1]; Subject 15, 12 mg twice a day, D 1, 2 hrs after 2nd adm., baseline 108 mmHg
  SP: 94 mmHg
[1]; Subject 15, 12 mg twice a day, D 1, 4 hrs after 1st adm., baseline 75 mmHg
  DP: 61 mmHg
[1]; Subject 15, 12 mg twice a day, D 1, 4 hrs after 1st adm., baseline 108 mmHg
  SP: 96 mmHg
[1]; Subject 15, 12 mg twice a day, D 1, 8 hrs after 1st adm., baseline 75 mmHg
  DP: 51 mmHg
[1]; Subject 15, 12 mg twice a day, D 1, 8 hrs after 1st adm., baseline 108 mmHg
  SP: 100 mmHg
[1]; Subject 15, 12 mg twice a day, D 2, 2 hrs after 2nd adm., baseline 75 mmHg
  DP: 64 mmHg
[1]; Subject 15, 12 mg twice a day, D 2, 2 hrs after 2nd adm., baseline 108 mmHg
  SP: 95 mmHg
[1]; Subject 15, 12 mg twice a day, D 2, 4 hrs after 1st adm., baseline 75 mmHg
  DP: 56 mmHg
[1]; Subject 15, 12 mg twice a day, D 2, 4 hrs after 1st adm., baseline 108 mmHg
  SP: 92 mmHg
[1]; Subject 15, 12 mg twice a day, D 2, 8 hrs after 1st adm., baseline 75 mmHg
  DP: 57 mmHg
[1]; Subject 15, 12 mg twice a day, D 2, 8 hrs after 1st adm., baseline 108 mmHg
  SP: 108 mmHg
[1]; Subject 15, 12 mg twice a day, D 3, 2 hrs after 2nd adm., baseline 75 mmHg
  DP: 65 mmHg
[1]; Subject 15, 12 mg twice a day, D 3, 2 hrs after 2nd adm., baseline 108 mmHg
  SP: 105 mmHg
[1]; Subject 15, 12 mg twice a day, D 3, 4 hrs after 1st adm., baseline 75 mmHg
  DP: 64 mmHg
[1]; Subject 15, 12 mg twice a day, D 3, 4 hrs after 1st adm., baseline 108 mmHg
  SP: 95 mmHg
[1]; Subject 15, 12 mg twice a day, D 3, 8 hrs after 1st adm., baseline 75 mmHg
  DP: 57 mmHg
[1]; Subject 15, 12 mg twice a day, D 3, 8 hrs after 1st adm., baseline 108 mmHg
  SP: 86 mmHg
[1]; Subject 16, 24 mg twice a day, D 1, 2 hrs after 2nd adm., baseline 81 mmHg
  DP: 66 mmHg
[1]; Subject 16, 24 mg twice a day, D 1, 2 hrs after 2nd adm., baseline 118 mmHg
  SP: 103 mmHg
[1]; Subject 16, 24 mg twice a day, D 1, 4 hrs after 1st adm., baseline 81 mmHg
  DP: 61 mmHg
[1]; Subject 16, 24 mg twice a day, D 1, 4 hrs after 1st adm., baseline 118 mmHg
  SP: 97 mmHg
[1]; Subject 16, 24 mg twice a day, D 1, 8 hrs after 1st adm., baseline 81 mmHg
  DP: 63 mmHg
[1]; Subject 16, 24 mg twice a day, D 1, 8 hrs after 1st adm., baseline 118 mmHg
  SP: 102 mmHg
[1]; Subject 16, 24 mg twice a day, D 2, 2 hrs after 2nd adm., baseline 81 mmHg
  DP: 61 mmHg
[1]; Subject 16, 24 mg twice a day, D 2, 2 hrs after 2nd adm., baseline 118 mmHg
  SP: 100 mmHg
[1]; Subject 16, 24 mg twice a day, D 2, 4 hrs after 1st adm., baseline 81 mmHg
  DP: 69 mmHg
[1]; Subject 16, 24 mg twice a day, D 2, 4 hrs after 1st adm., baseline 118 mmHg
  SP: 106 mmHg
[1]; Subject 16, 24 mg twice a day, D 2, 8 hrs after 1st adm., baseline 81 mmHg
  DP: 65 mmHg
[1]; Subject 16, 24 mg twice a day, D 2, 8 hrs after 1st adm., baseline 118 mmHg
  SP: 99 mmHg
[1]; Subject 16, 24 mg twice a day, D 3, 2 hrs after 2nd adm., baseline 81 mmHg
  DP: 69 mmHg
[1]; Subject 16, 24 mg twice a day, D 3, 2 hrs after 2nd adm., baseline 118 mmHg
  SP: 98 mmHg
[1]; Subject 16, 24 mg twice a day, D 3, 4 hrs after 1st adm., baseline 81 mmHg
  DP: 67 mmHg
[1]; Subject 16, 24 mg twice a day, D 3, 4 hrs after 1st adm., baseline 118 mmHg
  SP: 107 mmHg
[1]; Subject 16, 24 mg twice a day, D 3, 8 hrs after 1st adm., baseline 81 mmHg
  DP: 63 mmHg
[1]; Subject 16, 24 mg twice a day, D 3, 8 hrs after 1st adm., baseline 118 mmHg
  SP: 95 mmHg
[1]; Subject 17, 24 mg twice a day, D 1, 2 hrs after 2nd adm., baseline 87 mmHg
  DP: 73 mmHg
[1]; Subject 17, 24 mg twice a day, D 1, 2 hrs after 2nd adm., baseline 126 mmHg
  SP: 107 mmHg
[1]; Subject 17, 24 mg twice a day, D 1, 4 hrs after 1st adm., baseline 87 mmHg
  DP: 81 mmHg
[1]; Subject 17, 24 mg twice a day, D 1, 4 hrs after 1st adm., baseline 126 mmHg
  SP: 126 mmHg
[1]; Subject 17, 24 mg twice a day, D 1, 8 hrs after 1st adm., baseline 87 mmHg
  DP: 66 mmHg
[1]; Subject 17, 24 mg twice a day, D 1, 8 hrs after 1st adm., baseline 126 mmHg
  SP: 112 mmHg
[1]; Subject 17, 24 mg twice a day, D 2, 2 hrs after 2nd adm., baseline 87 mmHg
  DP: 63 mmHg
[1]; Subject 17, 24 mg twice a day, D 2, 2 hrs after 2nd adm., baseline 126 mmHg
  SP: 94 mmHg
[1]; Subject 17, 24 mg twice a day, D 2, 4 hrs after 1st adm., baseline 87 mmHg
  DP: 73 mmHg
[1]; Subject 17, 24 mg twice a day, D 2, 4 hrs after 1st adm., baseline 126 mmHg
  SP: 102 mmHg
[1]; Subject 17, 24 mg twice a day, D 2, 8 hrs after 1st adm., baseline 87 mmHg
  DP: 68 mmHg
[1]; Subject 17, 24 mg twice a day, D 2, 8 hrs after 1st adm., baseline 126 mmHg
  SP: 115 mmHg
[1]; Subject 17, 24 mg twice a day, D 3, 2 hrs after 2nd adm., baseline 87 mmHg
  DP: 74 mmHg
[1]; Subject 17, 24 mg twice a day, D 3, 2 hrs after 2nd adm., baseline 126 mmHg
  SP: 110 mmHg
[1]; Subject 17, 24 mg twice a day, D 3, 4 hrs after 1st adm., baseline 87 mmHg
  DP: 70 mmHg
[1]; Subject 17, 24 mg twice a day, D 3, 4 hrs after 1st adm., baseline 126 mmHg
  SP: 107 mmHg
[1]; Subject 17, 24 mg twice a day, D 3, 8 hrs after 1st adm., baseline 87 mmHg
  DP: 76 mmHg
[1]; Subject 17, 24 mg twice a day, D 3, 8 hrs after 1st adm., baseline 126 mmHg
  SP: 111 mmHg
[1]; continuous administration for 3 days, twice a day, 12 mg and 24 mg groups, decrease in diastolic greater than in systolic pressure
  effect on blood pressure of the subjects: can lower the blood pressure
[2]
  effect on diastolic pressure: significant effect on reducing diastolic pressure
[3]; [5]
  DP: 73 mmHg
  SP: 113 mmHg
[3]; [6]
  DP: 81 mmHg
  SP: 122 mmHg
[3]; [7]
  DP: 74 mmHg
  SP: 114 mmHg
[3]; [8]
  DP: 77 mmHg
  SP: 107 mmHg
[3]; [9]
  DP: 76 mmHg
  SP: 115 mmHg
[3]; [10]
  DP: 68 mmHg
  SP: 117 mmHg
[3]; [11]
  DP: 73 mmHg
  SP: 109 mmHg
[3]; [12]
  DP: 74 mmHg
  SP: 114 mmHg
[3]; [13]
  DP: 82 mmHg
  SP: 111 mmHg
[3]; [14]
  DP: 73 mmHg
  SP: 109 mmHg
[3]; [15]
  DP: 73 mmHg
  SP: 109 mmHg
[3]; [16]
  DP: 70 mmHg
  SP: 107 mmHg
[3]; [17]
  DP: 74 mmHg
  SP: 114 mmHg
[3]; [18]
  DP: 69 mmHg
  SP: 106 mmHg
[3]; [19]
  DP: 62 mmHg
  SP: 97 mmHg
[3]; [20]
  DP: 77 mmHg
  SP: 125 mmHg
[3]; [21]
  DP: 77 mmHg
  SP: 118 mmHg
[3]; [22]
  DP: 63 mmHg
  SP: 112 mmHg
[3]; [23]
  DP: 77 mmHg
  SP: 108 mmHg
[3]; [24]
  DP: 62 mmHg
  SP: 102 mmHg
[3]; [25]
  DP: 62 mmHg
  SP: 103 mmHg
[3]; twice a day for 7 days, decrease in diastolic greater than in systolic pressure
  both systolic and diastolic pressure of the subjects: reduced
[4]; human, in vivo, po, single oral administration, dose range 6 mg to 132 mg, t1/2 extends with increasing dosage
  half-life: 20 to 30 h
[4]; single oral dose, 6 mg to 132 mg groups
  time at which peak concentration was reached: 2.5 to 6.5 h
